The values that follow come from ChEMBL document CHEMBL5053487 (J Med Chem, 2021).

As a reminder, the IC50 is the concentration needed to halve the response being measured. A higher IC50 goes with weaker potency in that assay. As usually defined, the T/C is the ratio of treated to control.

Experiment [1] concerns the target T1, Estrogen receptor (Homo sapiens, UniProt P03372).
T1 sequence (P03372 whole entry): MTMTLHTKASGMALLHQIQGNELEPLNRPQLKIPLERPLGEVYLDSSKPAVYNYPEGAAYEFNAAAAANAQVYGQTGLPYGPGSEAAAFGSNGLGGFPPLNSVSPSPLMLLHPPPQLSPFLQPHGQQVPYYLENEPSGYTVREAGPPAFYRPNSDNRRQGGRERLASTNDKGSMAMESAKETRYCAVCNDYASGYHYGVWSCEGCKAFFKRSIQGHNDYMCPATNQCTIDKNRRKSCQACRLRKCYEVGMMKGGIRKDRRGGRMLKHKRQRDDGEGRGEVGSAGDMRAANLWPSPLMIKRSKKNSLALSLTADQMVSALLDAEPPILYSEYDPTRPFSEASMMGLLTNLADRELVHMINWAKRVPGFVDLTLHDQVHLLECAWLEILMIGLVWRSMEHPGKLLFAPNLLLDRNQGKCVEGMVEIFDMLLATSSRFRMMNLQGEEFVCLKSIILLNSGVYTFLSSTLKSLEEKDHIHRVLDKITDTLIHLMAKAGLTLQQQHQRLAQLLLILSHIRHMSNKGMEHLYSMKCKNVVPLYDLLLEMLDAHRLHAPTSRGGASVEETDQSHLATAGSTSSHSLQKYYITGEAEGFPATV
Description: Antagonist activity at ERalpha (unknown origin) assessed as inhibition of fluorescein-labeled PGC-1 coactivator recruitment incubated for 30 mins measured by TR-FRET assay

Experiment [2] in a line: Antiproliferative activity on human MCF7/TAMR-1 cells at 10 uM assessed as ratio of T/C measured up to 144 hrs relative to control. In kind it is functional, MCF-7/TAMR-1.
Experiment [3] relates to MCF7. The experiment is described as follows: Antiproliferative activity on human MCF7 cells at 5 to 20 uM assessed as ratio of T/C measured up to 144 hrs relative to control. It counts as functional. The note with it: dose 5-20 µM.

With `CCC(=C(c1ccc(O)cc1)c1ccc(/C=C/C(=O)NCCCCCNC(=O)CCc2nc3cc(O)ccc3[nH]2)cc1)c1ccccc1` (mixture of isomers), in experiment [1], the IC50 came out at 125 nM.

For `CCC(=C(c1ccc(O)cc1)c1ccc(/C=C/C(=O)NCCCCCCNC(=O)CCc2nc3cc(OC)ccc3[nH]2)cc1)c1ccccc1` (mixture of isomers), in experiment [2], the T/C is 40%.

On to `CCC(=C(c1ccc(O)cc1)c1ccc(/C=C/C(=O)NCCCNC(=O)CCCn2c(=S)[nH]c3ccccc3c2=O)cc1)c1ccccc1` (mixture of isomers), for which, in experiment [2], the T/C amounted to 40%.

On to `CCC(=C(c1ccc(O)cc1)c1ccc(/C=C/C(=O)NCCCCCCNC(=O)CCc2nc3cc(O)ccc3[nH]2)cc1)c1ccccc1` (mixture of isomers), for which the T/C in experiment [2] is 40%. As for `CCC(=C(c1ccc(O)cc1)c1ccc(/C=C/C(=O)NCCCNC(=O)c2ccc(N3CCN(C(=O)CCCn4c(=S)[nH]c5ccccc5c4=O)CC3)cc2)cc1)c1ccccc1` (mixture of isomers), in experiment [2], the T/C is 40%.

`C[C@]12CC[C@@H]3c4ccc(O)cc4C[C@@H](CCCCCCCCC[S+]([O-])CCCC(F)(F)C(F)(F)F)[C@H]3[C@@H]1CC[C@@H]2O` (stereo partly specified) [FULVESTRANT]: in experiment [3], the T/C came to 30%.
